Results reported in US20250366474A1, “USE OF 4,5-DIMETHYLTHIAZOLE IN PROMOTING PLANT GROWTH” (HUAZHONG AGRICULTURAL UNIVERSITY, priority 2024, published 2025).

Legend:
rice seedlings = experiment: 4,5-dimethylthiazole root drenching: rice seedling dry matter mass and chlorophyll content; type: in vivo; conditions: root drenching 6 Times; for Total Biomass / Total Chlorophyll Content / Root System Biomass / Shoot Part Biomass: 30 days of seedling cultivation; for Total Chlorophyll Content: leaves; for Root System Relative Value / Shoot Part Relative Value / Total Chlorophyll Content Relative Value / Total Relative Value: 30 days, vs Control 0 mg/L
Method: Five root irrigation solution concentrations (0, 20, 50, 100 and 200 mg/L) and three types of root drenching frequency (2, 4, and 6 times) were set. 4,5-dimethylthiazole of different mass was dissolved in distilled water to obtain root irrigation solutions at different concentrations. After normal rice seed soaking and accelerated germination, rice substrate soil was loaded 2 cm away from a seedling tray opening, gently compacted, and watered with pure water to be wet. A rice seedling nursery substrate was “rice seedling nursery substrate” purchased from Guangzhou Shengsheng Agriculture Co., Ltd., with main ingredients including peat, vermiculite and yellow mud. Two seeds were sowed in each hole on a substrate surface, covered with the substrate soil again to the seedling tray opening, and watered to be wet. Three days after the rice seedling emergence, the root irrigation solutions at different concentrations was applied once every five days, until there was a water layer of 5 mm on a surface of the substrate. Each treatment was applied with a consistent amount. The drenching was conducted during cooler evening hours to minimize evaporation. After 30 days of seedling cultivation, nine rice samples were taken from each treatment, divided into shoot parts and root system, which were dried and then weighed; and leaves were taken from another nine rice plants to measure chlorophyll content.

[1] = system: hydroponic rice seedlings; experiment: Addition of 4,5-dimethylthiazole to hydroponic rice: growth, agronomic traits and nitrogen accumulation; type: in vivo, indica (Heliangyou 332) and japonica (Nipponbare); conditions: for Dry Matter Mass of Rice, Root System / Dry Matter Mass of Rice, Shoot Part / Dry Matter Mass of Rice, Total / Leaf Area / Leaf Length / Leaf Width / Plant Height / Total Root Count: 25 days of cultivation
Method: Five addition concentrations of 4,5-dimethylthiazole (CAS No. 3581-91-7, see FIG. 1 for structural formula) were set, being 0, 5, 10, 20 and 50 mg/L, respectively, and a solvent was a rice nutrient solution. Two rice varieties were indica (Heliangyou 332) and japonica (Nipponbare), respectively. The rice was subjected to normal seed soaking, sowing and cultivation. When grown to one leaf and one tiller, rice seedlings were cultivated with mixed solution. Samples were collected after 25 days of cultivation. 30 plants were sampled from each treatment, where 15 plants were divided into two parts of stems and leaves, and root system, which were dried and weighed, and the other 15 plants were measured for agronomic traits.

For `Cc1ncsc1C` [4,5-dimethylthiazole], the “Total Biomass” value (rice seedlings; 20 mg/L) was 91.3 mg/plant, the “Total Chlorophyll Content” value (rice seedlings; 20 mg/L) was 4.03 mg/g and the “Root System Relative Value” (rice seedlings; 20 mg/L) was 51.8%. For the same compound, the “Shoot Part Relative Value” (rice seedlings; 20 mg/L) was 35.4%, the “Total Chlorophyll Content Relative Value” (rice seedlings; 20 mg/L) was 8.1% and the “Total Relative Value” (rice seedlings; 20 mg/L) was 37.3%. For the same compound, the “Root System Biomass” value (rice seedlings; 50 mg/L) was 7.9 mg/plant, the “Shoot Part Biomass” value (rice seedlings; 50 mg/L) was 85.8 mg/plant and the “Total Biomass” value (rice seedlings; 50 mg/L) was 93.7 mg/plant. For the same compound, the “Total Chlorophyll Content” value (rice seedlings; 50 mg/L) was 4.32 mg/g, the “Root System Relative Value” (rice seedlings; 50 mg/L) was 44.7% and the “Shoot Part Relative Value” (rice seedlings; 50 mg/L) was 40.6%. The “Total Chlorophyll Content Relative Value” (rice seedlings; 50 mg/L) was 15.9%, the “Total Relative Value” (rice seedlings; 50 mg/L) was 41.0% and the “Root System Biomass” value (rice seedlings; 100 mg/L) was 7.1 mg/plant. For the same compound, the “Shoot Part Biomass” value (rice seedlings; 100 mg/L) was 74.7 mg/plant, the “Total Biomass” value (rice seedlings; 100 mg/L) was 81.8 mg/plant and the “Total Chlorophyll Content” value (rice seedlings; 100 mg/L) was 4.20 mg/g. For the same compound, the “Root System Relative Value” (rice seedlings; 100 mg/L) was 30.2%, the “Shoot Part Relative Value” (rice seedlings; 100 mg/L) was 22.4% and the “Total Chlorophyll Content Relative Value” (rice seedlings; 100 mg/L) was 12.7%. The “Total Relative Value” (rice seedlings; 100 mg/L) was 23.1%, the “Root System Biomass” value (rice seedlings; 200 mg/L) was 7.1 mg/plant and the “Shoot Part Biomass” value (rice seedlings; 200 mg/L) was 63.5 mg/plant. The “Total Biomass” value (rice seedlings; 200 mg/L) was 70.6 mg/plant, the “Total Chlorophyll Content” value (rice seedlings; 200 mg/L) was 3.79 mg/g and the “Root System Relative Value” (rice seedlings; 200 mg/L) was 29.7%. For the same compound, the “Shoot Part Relative Value” (rice seedlings; 200 mg/L) was 4.1%, the “Total Chlorophyll Content Relative Value” (rice seedlings; 200 mg/L) was 1.6% and the “Total Relative Value” (rice seedlings; 200 mg/L) was 6.2%. For the same compound, the “Dry Matter Mass of Rice, Root System” value ([1]; 5 mg/L) was 3.1 mg/plant, the “Dry Matter Mass of Rice, Shoot Part” value ([1]; 5 mg/L) was 17.0 mg/plant and the “Dry Matter Mass of Rice, Total” value ([1]; 5 mg/L) was 20.1 mg/plant. For the same compound, the “Leaf Area” value ([1]; 5 mg/L) was 3.39 cm^2, the “Leaf Length” value ([1]; 5 mg/L) was 10.73 cm and the “Leaf Width” value ([1]; 5 mg/L) was 0.38 cm. For the same compound, the “Plant Height” value ([1]; 5 mg/L) was 16.73 cm, the “Total Root Count” value ([1]; 5 mg/L) was 8.0 count/plant and the “Dry Matter Mass of Rice, Root System” value ([1]; 10 mg/L) was 4.0 mg/plant. The “Dry Matter Mass of Rice, Shoot Part” value ([1]; 10 mg/L) was 24.3 mg/plant, the “Dry Matter Mass of Rice, Total” value ([1]; 10 mg/L) was 28.3 mg/plant and the “Leaf Area” value ([1]; 10 mg/L) was 3.03 cm^2. The “Leaf Length” value ([1]; 10 mg/L) was 10.88 cm, the “Leaf Width” value ([1]; 10 mg/L) was 0.34 cm and the “Plant Height” value ([1]; 10 mg/L) was 16.97 cm. For the same compound, the “Total Root Count” value ([1]; 10 mg/L) was 8.0 count/plant, the “Dry Matter Mass of Rice, Root System” value ([1]; 20 mg/L) was 3.8 mg/plant and the “Dry Matter Mass of Rice, Shoot Part” value ([1]; 20 mg/L) was 22.0 mg/plant. The “Dry Matter Mass of Rice, Total” value ([1]; 20 mg/L) was 25.8 mg/plant, the “Leaf Area” value ([1]; 20 mg/L) was 3.16 cm^2 and the “Leaf Length” value ([1]; 20 mg/L) was 11.08 cm. For the same compound, the “Leaf Width” value ([1]; 20 mg/L) was 0.34 cm, the “Plant Height” value ([1]; 20 mg/L) was 16.13 cm and the “Total Root Count” value ([1]; 20 mg/L) was 8.7 count/plant. The “Dry Matter Mass of Rice, Root System” value ([1]; 50 mg/L) was 3.0 mg/plant, the “Dry Matter Mass of Rice, Shoot Part” value ([1]; 50 mg/L) was 19.7 mg/plant and the “Dry Matter Mass of Rice, Total” value ([1]; 50 mg/L) was 22.7 mg/plant. For the same compound, the “Leaf Area” value ([1]; 50 mg/L) was 3.01 cm^2, the “Leaf Length” value ([1]; 50 mg/L) was 9.23 cm and the “Leaf Width” value ([1]; 50 mg/L) was 0.39 cm. For the same compound, the “Plant Height” value ([1]; 50 mg/L) was 14.15 cm, the “Total Root Count” value ([1]; 50 mg/L) was 9.3 count/plant and the “increase of leaf area” value ([1]; 5-50 mg/L, average) was 59.6%. For the same compound, the “increase of leaf length” value ([1]; 5-50 mg/L, average) was 33.9%, the “increase of leaf width” value ([1]; 5-50 mg/L, average) was 19.6% and the “increase of rice plant height” value ([1]; 5-50 mg/L, average) was 31.5%. The “increase of total root count” value ([1]; 5-50 mg/L, average) was 47.8%.
